Data: patent US9975860B2, “Anti-angiogenic compounds” (UNIVERSITY COLLEGE DUBLIN—NATIONAL UNIVERSITY OF IRELAND, …, priority 2014, dated 2018)
Entries after “also recorded” stand apart in the source; their conditions may differ.

How the values were obtained:
[1] = test system: primary hyaloid vessels in zebrafish; assay: Quantification of primary hyaloid vasculature branch number in Tg(fli1:EGFP) zebrafish; assay type: in vivo
Method: All experiments were carried out under ethical approval granted by the UCD animal research ethics committee. Tg(fli1:EGFP) zebrafish were maintained according to standard procedures on a 14 hr light/10 hr dark cycle at 28° C. Embryos were obtained by natural spawning and developmental stages established by time and morphological criteria. At 48 hours post fertilisation (hpf), 5 embryos per well were placed in 400 μl of Embryo Medium/0.1% DMSO and incubated with compound (typically, 10 μM) at 28° C. on a 14 h light/10 h dark cycle. At 5 days post fertilisation (dpf), larvae were euthanised, and fixed in 4% PFA at 4° C. overnight before analysis.
Prior to analysis of the intraocular vasculature, the control and treated larvae were observed under an Olympus SZX16 stereo zoom microscope and screened for general malformations. Overall patterning of the vasculature (fin, gut and intersegmental vessels) was examined for abnormalities. Right lenses were dissected from the larvae and transferred to depression slides for observation under epi-fluorescence in the Olympus SZX16. Patterning of the hyaloid vessels on the treated larval lenses was compared to 0.1% DMSO controls and the archetypal pattern previously described (Alvarez et al., 2007; Alvarez et al., 2009). The number of primary vessels radiating from the back of the lens (3-4 main branches at 5 dpf in controls and previously described), was counted and the average number was graphed for each drug.
(§1) All experimental protocols were carried out as per example 1 and 2. Briefly, zebrafish larvae were treated with 10 μM of AT-051/41206012 (chemical name 2-[2-(2-methoxyphenyl)ethenyl]pyrazine) purchased from Specs (The Netherlands). At 6 or 48 hours post fertilisation (hpf), 5 embryos per well were placed in 400 μl of Embryo Medium/0.1% DMSO and incubated with 10 μM AT-051/41206012 at 28° C. on a 14 h light/10 h dark cycle. Larvae were treated from 6-48 hpf (intersegmental vessel study) or from 48 to 120 hpf (primary hyaloid vessel study). At the end of the study, larvae were euthanized and fixed in 4% PFA at 4° C. overnight before analysis.
(§2) The number of intersegmental vessels was counted and the average number was graphed for each drug. Right lenses were dissected from the larvae and transferred to depression slides for observation and the number of primary hyaloid vessels radiating from the back of the lens (3-4 main branches at 5 dpf in controls and previously described), was counted and the average number was graphed for each drug.

[2] = test system: intersegmental vasculature in zebrafish; assay: Quantification of intersegmental vessel number in zebrafish; assay type: in vivo; details: 10 μM; zebrafish embryos treated 6 hpf to 48 hpf
Method: At 6 hours post fertilisation, 5 embryos per well were placed in 400 μL of embryo medium/0.1% DMSO and incubated with 10 μM compound at 28° C. on a 14 h light/10 h dark cycle. At 48 hpf larvae were manually dechorionated, euthanised, and fixed in 4% PFA at 4° C. overnight before analysis. The larvae were then washed with PBS and transferred to depression slides for observation under epi-fluorescence in an Olympus SZX16 fluorescent microscope. The number of intersegmental vessels was counted and the average number was graphed for each drug.
as §1, §2

[3] = 10 μM, zebrafish larvae treated 48 hpf to 5 dpf, vs 0.1% DMSO control
[4] = concentrations below 10 μM (range 1, 2.5, 5, 7.5 and 10 μM tested), zebrafish larvae 48 hpf to 5 dpf

SMILES	inhibition of developmental angiogenesis of the hyaloid vasculature (number of primary hyaloid vessels) [1, 3]	inhibition of developmental angiogenesis of intersegmental vessels (number of intersegmental vessels) [2]	inhibition of developmental angiogenesis of the hyaloid vasculature (number of primary hyaloid vessels) [1, 4]
COc1ccccc1/C=C/c1cnccn1 [AT-051/41206012, 2-[2-(2-methoxyphenyl)ethenyl]pyrazine]	significantly inhibits developmental angiogenesis of zebrafish hyaloid vessels; also recorded: does inhibit developmental angiogenesis of the zebrafish hyaloid vasculature in a statistically significant manner	does not inhibit developmental angiogenesis of the intersegmental vessels; also recorded: does not affect the development of intersegmental vessels	
COc1ccccc1C#Cc1cnccn1 [Compound 19, 2-[2-(2-Methoxyphenyl)ethynyl]pyrazine]		inhibit developmental angiogenesis of zebrafish intersegmental vessels in a statistically significant manner	inhibit developmental angiogenesis of the zebrafish hyaloid vasculature in a statistically significant manner
Cc1ccc(O)c(/C=C/c2cnccn2)c1 [Compound 13, (E)-4-Methyl-[2-(2-(pyrazin-2-yl)vinyl)]phenol]	inhibit developmental angiogenesis of the zebrafish hyaloid vasculature in a statistically significant manner		
Cl.Oc1ccccc1/C=C/c1ncc[nH]1 [Compound 23, (E)-2-(2-(IH-Imidazol-2-yl)vinyl)phenol hydrochloride]	inhibit developmental angiogenesis of the zebrafish hyaloid vasculature in a statistically significant manner		
Oc1ccccc1/C=C/c1cnccn1 [Compound 3, (E)-2-[2-(Pyrazin-2-yl)vinyl]phenol]	inhibit developmental angiogenesis of the zebrafish hyaloid vasculature in a statistically significant manner	inhibit developmental angiogenesis of zebrafish intersegmental vessels in a statistically significant manner	inhibit developmental angiogenesis of the zebrafish hyaloid vasculature in a statistically significant manner
Oc1ccccc1/C=C/c1ccccn1 [Compound 1, (E)-2-[2-(Pyridin-2-yl)vinyl]phenol]	inhibit developmental angiogenesis of the zebrafish hyaloid vasculature in a statistically significant manner		
Cc1ccc(O)c(/C=C/c2cnccn2)c1.Cl [Compound 14, (E)-4-Methyl-[2-(2-(Pyrazin-2-yl)vinyl)]phenol hydrochloride]	inhibit developmental angiogenesis of the zebrafish hyaloid vasculature in a statistically significant manner		
C/C(=C\c1ccccc1O)c1cnccn1 [Compound 11, (E)-2-[2-(Pyrazin-2-yl)prop-1-enyl]phenol]	inhibit developmental angiogenesis of the zebrafish hyaloid vasculature in a statistically significant manner		
Cl.Oc1ccccc1/C=C/c1ccccn1 [Compound 2, (E)-2-[2-(Pyridin-2-yl)vinyl]phenol hydrochloride]	inhibit developmental angiogenesis of the zebrafish hyaloid vasculature in a statistically significant manner	inhibit developmental angiogenesis of zebrafish intersegmental vessels in a statistically significant manner	inhibit developmental angiogenesis of the zebrafish hyaloid vasculature in a statistically significant manner
